We go through four compounds from patent US20230256108A1, “A DRUG CONJUGATE AND APPLICATIONS THEREOF” (GENEQUANTUM HEALTHCARE (SUZHOU) CO., LTD., priority 2019, published 2023).

Read-outs that look alike come from different tables or passages of the source. Non-standard residues stand in square brackets, D forms with d. Residues, ends and D or L forms follow the SMILES beside them. *: point of attachment. Dolaproine = CO[C@@H]([C@@H]1CCCN1)[C@@H](C)C(=O)O; Hexanoyl(6-maleimido) = O=C1C=CC(=O)N1CCCCCC(=O)*; Dil = CC[C@H](C)[C@H](NC)[C@@H](CC(=O)O)OC; NMeV = CN[C@H](C(=O)O)C(C)C

One test concerns NCI-N87. The experiment in a line: Cytotoxicity, HER2 high-expressing cancer cells. Format: cell-based, human.
A further test concerns BT-474. Put plainly: Cytotoxicity, HER2 high-expressing cancer cells. The class given is cell-based.
The next test has as its system SK-BR-3. Put plainly: Cytotoxicity, HER2 high-expressing cancer cells. The class given is cell-based, human.
For a further test, the system named is MDA-MB-231. The experiment in a line: Cytotoxicity, HER2 low-expressing or HER2-negative cells. Format: cell-based. The note with it: Homo sapiens. The method, then:
(§1) Cytotoxicity experiments were performed using human breast cancer cells MDA-MB-231, MDA-MB-468, which are HER2 low-expressing or HER2-negative.

A further test has as its system MDA-MB-468. Described as above. The class given is cell-based. The note with it: Homo sapiens. The method, then:
as §1

The test system of a further test is HCC1954. Put plainly: Cytotoxicity, HER2 high-expressing cancer cells. Format: cell-based, human.

As for `CC[C@H](C)[C@@H]([C@@H](CC(=O)N1CCC[C@H]1[C@H](OC)[C@@H](C)C(=O)N[C@@H](Cc1ccccc1)C(=O)O)OC)N(C)C(=O)[C@H](NC(=O)[C@H](C(C)C)N(C)C(=O)CCCCCN1C(=O)CC(SCC(NC(=O)CCOCCOCCOCCOCCNC(=O)CNC(=O)CNC(=O)CN)C(N)=O)C1=O)C(C)C` (stereo partly drawn) [IM102 (ring closed)], the IC50 amounted to 690 nM in the test with NCI-N87 (Homo sapiens, NCI-N87); 267 nM in the test with BT-474 (Homo sapiens, BT-474); 383 nM with SK-BR-3 (Homo sapiens, SK-BR-3); 1710 nM in the test on MDA-MB-231; 1080 nM in the test on MDA-MB-468; 160 nM in the test on HCC1954 (Homo sapiens, HCC1954).
In the case of `CC[C@H](C)[C@@H]([C@@H](CC(=O)N1CCC[C@H]1[C@H](OC)[C@@H](C)C(=O)N[C@@H](Cc1ccccc1)C(=O)O)OC)N(C)C(=O)[C@@H](NC(=O)[C@H](C(C)C)N(C)C(=O)CCCCCN1C(=O)C=CC1=O)C(C)C` [mc-MMAF] ({Hexanoyl(6-maleimido)}-[NMeV]V[Dil][Dolaproine]F-OH), the IC50 in the test with NCI-N87 turned out to be 208 nM; with BT-474, 56.1 nM; in the test with SK-BR-3, 98.6 nM; in the test on HCC1954 it was 116 nM.
For `CC[C@H](C)[C@@H]([C@@H](CC(=O)N1CCC[C@H]1[C@H](OC)[C@@H](C)C(=O)N[C@@H](Cc1ccccc1)C(=O)O)OC)N(C)C(=O)[C@@H](NC(=O)[C@@H](NC)C(C)C)C(C)C` [MMAF, monomethyl auristatin F] (H-[NMeV]V[Dil][Dolaproine]F-OH), in that order: 41.4 nM, 44.7 nM, 54.3 nM and 39.6 nM.
The corresponding values for `COc1cc2cc(c1Cl)N(C)C(=O)C[C@H](OC(=O)[C@H](C)N(C)C(=O)CCS)[C@]1(C)O[C@H]1[C@H](C)[C@@H]1C[C@@](O)(NC(=O)O1)[C@H](OC)/C=C/C=C(\C)C2` [DM1] are 6.97 nM, 6.24 nM, 1.92 nM and 2.67 nM.
